# Measured values reported in ChEMBL document CHEMBL4610107, “Ene-yne Hydroquinones from a Marine-derived Strain of the Fungus Pestalotiopsis neglecta with Effects on Liver X Receptor Alpha” (J Nat Prod, 2020).
# Target: T1, Oxysterols receptor LXR-alpha (Homo sapiens, UniProt Q13133)
# T1 sequence (Q13133 whole entry): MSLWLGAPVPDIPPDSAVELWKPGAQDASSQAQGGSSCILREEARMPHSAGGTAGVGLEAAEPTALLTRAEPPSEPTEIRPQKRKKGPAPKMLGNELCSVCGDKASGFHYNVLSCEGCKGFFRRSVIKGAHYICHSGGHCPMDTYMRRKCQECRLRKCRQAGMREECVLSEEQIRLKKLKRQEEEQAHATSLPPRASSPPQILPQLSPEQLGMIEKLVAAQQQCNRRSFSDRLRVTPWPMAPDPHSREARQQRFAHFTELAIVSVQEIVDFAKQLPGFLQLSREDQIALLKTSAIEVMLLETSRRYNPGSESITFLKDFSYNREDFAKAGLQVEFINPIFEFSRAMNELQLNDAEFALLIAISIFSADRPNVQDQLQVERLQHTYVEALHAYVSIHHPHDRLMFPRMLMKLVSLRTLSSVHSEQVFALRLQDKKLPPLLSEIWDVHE
# Assay: Binding affinity to LXRalpha (unknown origin) by surface plasmon resonance assay; call rule not given here
smiles,measurement,value
O=C(O)Cc1cccc(OCCCN(Cc2cccc(C(F)(F)F)c2Cl)CC(c2ccccc2)c2ccccc2)c1,Kd,Not Active
